From ChEMBL document CHEMBL1201862, “PubChem BioAssay data set” (2004)
Calls of active or inactive are those of the source.

Experiments:
[1] = molecular target: Prothrombin (Bos taurus, UniProt P00735); assay: thrombin protease inhibitors – biochemical, fluorescence polarization, uHTS hits, dose response (AID 602369); assay type: functional
[2] = molecular target: 72 kDa type IV collagenase (Homo sapiens, UniProt P08253); assay: Dose Response validation of uHTS RPN11 inhibitor hits using a MMP-2 Fluorescence assay.; assay type: functional
[3] = molecular target: 26S proteasome non-ATPase regulatory subunit 14 (Homo sapiens, UniProt O00487); assay: inhibition of proteasome subunit RPN11 – biochemical, fluorescence polarization, uHTS hits, confirmation (AID 602368); assay type: functional
[4] = molecular target: Ras and Rab interactor 1/Tyrosine-protein kinase ABL1 (Homo sapiens, UniProt P00519+Q13671); assay type: functional;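 note: biochemical TR-FRET dose-response test measuring inhibition of binding between Rin1 and Abl proteins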
[5] = tested on: BJ; assay: cells; assay type: functional, cell-based; conditions: Homo sapiens
[6] = tested on: BJ; assay: BJ-TERT fibroblast viability loss – cell-based, RAS-independent, luminescence, dose response (AID 1933); assay type: functional; conditions: Homo sapiens
[7] = molecular target: T1, Estrogen receptor beta (Homo sapiens, UniProt Q92731);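 note: recombinant ER-beta bound to coactivator SRC1 peptide in presence of estradiol agonist; inhibitors block coactivator peptide binding and lower the FRET signal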
[8] = DRD fibroblast viability loss – cell-based, non-viral oncogenic, luminescence, dose response (AID 1934); assay type: functional; conditions: Homo sapiens
[9] = tested on: BJ; assay: BJ-TERT-LT-ST fibroblast viability loss – cell-based, RAS-independent, luminescence, dose response (AID 1935); assay type: functional; conditions: Homo sapiens;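 note: BJ fibroblasts immortalized with TERT plus LT and ST oncogenes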
[10] = molecular target: T1, Estrogen receptor beta; assay: blockers of SRC-3 recruitment to ERβ – biochemical, ELISA, streptavidin-HRP readout, orthogonal assay, confirmation (AID 1060)
[11] = tested on: BJ; assay: growth inhibition of engineered Ras-driven BJ cells – cell-based, alamar blue fluorescence, cherrypicked samples, dose response (AID 2631); assay type: functional; conditions: Homo sapiens;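 note: confirmatory dose-response assay in RAS-dependent BJ fibroblasts engineered with TERT, LT and ST, with cytotoxicity read by fluorescence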
[12] = Luminescence Cell-Based Dose Confirmation HTS to Identify Inhibitors of Platelet Dense Granule Release. [Related pubchem assays: 1663 (Primary HTS), 1678 (Summary of Project)]; assay type: functional
[13] = molecular target: Luciferin 4-monooxygenase (Photinus pyralis, UniProt P08659); assay: inhibition of purified Photinus pyralis luciferase – biochemical, luminescence, dose response (AID 1891)
[14] = HEK-293T viability loss after treatment – luminescence, T-cell screen hits, cytotoxicity control for TCR NF-kB inhibitor project, dose response (AID 489026); assay type: functional, cell-based;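 note: cells exposed to compound about 14 hours before the viability readout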
[15] = tested on: Vero; assay: cells; assay type: functional; conditions: Chlorocebus sabaeus
[16] = tested on: Vero; assay: cells; assay type: functional, cell-based; conditions: Chlorocebus sabaeus
[17] = molecular target: Nonstructural protein 1 (Influenza A virus, UniProt Q194T2); assay type: functional, Influenza A virus (A/California/07/2009(H1N1))
[18] = molecular target: Heat shock protein HSP 90-alpha (Homo sapiens, UniProt P07900); assay type: functional, organism-based
[19] = tested on: HEK293; assay: EBV LMP1 TES2 canonical NF-kB signalling blockers – cell-based, HEK293, luciferase, cherry-pick, dose response (AID 588343); assay type: functional; conditions: Homo sapiens
[20] = Trypanosoma cruzi growth suppression in host cells – NIH3T3 host cells, beta-gal luminescence, confirmation (AID 2044); assay type: functional, cell-based;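 note: intracellular parasites grown in NIH/3T3 mouse fibroblasts as host cells; luminescent beta-galactosidase reporter signal from transgenic T. cruzi replicating inside host cells; inhibitors lower the luminescence signal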
[21] = NIH3T3 cell viability loss – ATP luminescence, mouse fibroblasts, counter-screen, dose response (AID 2010); assay type: functional, cell-based;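 note: cells exposed to compound for about 90 hours before reading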
[22] = molecular target: T2, Coagulation factor XII (Homo sapiens, UniProt P00748); assay: Factor XIIa Dose Response Confirmation from Single Well HTS. [Related pubchem assays (depositor defined):AID701]; assay type: functional
T2 sequence (P00748 whole entry): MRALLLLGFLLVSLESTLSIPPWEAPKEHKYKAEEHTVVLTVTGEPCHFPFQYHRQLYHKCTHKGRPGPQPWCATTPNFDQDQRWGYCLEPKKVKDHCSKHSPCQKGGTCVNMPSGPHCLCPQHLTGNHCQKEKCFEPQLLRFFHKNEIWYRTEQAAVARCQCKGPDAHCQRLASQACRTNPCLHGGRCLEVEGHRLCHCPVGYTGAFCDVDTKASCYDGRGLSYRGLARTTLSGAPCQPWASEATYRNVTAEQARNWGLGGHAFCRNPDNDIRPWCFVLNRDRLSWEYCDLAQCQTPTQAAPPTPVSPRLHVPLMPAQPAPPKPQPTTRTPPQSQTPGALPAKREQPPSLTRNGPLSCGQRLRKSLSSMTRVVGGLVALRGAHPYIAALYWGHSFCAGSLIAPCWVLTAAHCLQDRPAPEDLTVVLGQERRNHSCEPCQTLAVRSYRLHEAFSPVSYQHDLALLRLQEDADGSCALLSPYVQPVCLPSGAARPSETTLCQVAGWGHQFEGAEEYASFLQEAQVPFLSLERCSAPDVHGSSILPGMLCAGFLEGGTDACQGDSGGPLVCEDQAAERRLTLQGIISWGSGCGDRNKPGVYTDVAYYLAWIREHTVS

[23] = molecular target: T3, DNA repair and recombination protein RAD54-like (Homo sapiens, UniProt Q92698); assay: RAD54 Holliday junction migration blockers – biochemical, fluorescence, cherry-picked samples, dose series, confirmation (AID 651657); assay type: functional
T3 sequence (Q92698 whole entry): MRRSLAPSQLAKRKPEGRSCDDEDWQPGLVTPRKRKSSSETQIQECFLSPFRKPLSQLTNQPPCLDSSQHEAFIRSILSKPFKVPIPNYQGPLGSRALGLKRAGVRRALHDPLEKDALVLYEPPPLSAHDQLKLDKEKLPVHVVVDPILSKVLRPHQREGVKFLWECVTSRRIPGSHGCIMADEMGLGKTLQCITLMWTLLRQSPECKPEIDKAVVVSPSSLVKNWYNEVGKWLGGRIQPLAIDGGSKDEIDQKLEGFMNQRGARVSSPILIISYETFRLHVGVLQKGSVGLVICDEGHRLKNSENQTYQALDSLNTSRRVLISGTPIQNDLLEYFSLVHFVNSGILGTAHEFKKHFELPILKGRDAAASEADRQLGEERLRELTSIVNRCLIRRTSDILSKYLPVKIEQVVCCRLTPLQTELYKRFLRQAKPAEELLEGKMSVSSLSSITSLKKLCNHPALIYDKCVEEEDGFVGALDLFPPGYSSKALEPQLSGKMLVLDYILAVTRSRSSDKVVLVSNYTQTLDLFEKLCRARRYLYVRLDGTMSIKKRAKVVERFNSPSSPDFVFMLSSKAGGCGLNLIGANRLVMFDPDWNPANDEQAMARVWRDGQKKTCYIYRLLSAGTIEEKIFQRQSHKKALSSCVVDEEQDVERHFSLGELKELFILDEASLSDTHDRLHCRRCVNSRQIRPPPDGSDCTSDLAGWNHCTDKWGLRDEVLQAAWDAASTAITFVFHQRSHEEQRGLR

Sequence of 72 kDa type IV collagenase (P08253 whole entry): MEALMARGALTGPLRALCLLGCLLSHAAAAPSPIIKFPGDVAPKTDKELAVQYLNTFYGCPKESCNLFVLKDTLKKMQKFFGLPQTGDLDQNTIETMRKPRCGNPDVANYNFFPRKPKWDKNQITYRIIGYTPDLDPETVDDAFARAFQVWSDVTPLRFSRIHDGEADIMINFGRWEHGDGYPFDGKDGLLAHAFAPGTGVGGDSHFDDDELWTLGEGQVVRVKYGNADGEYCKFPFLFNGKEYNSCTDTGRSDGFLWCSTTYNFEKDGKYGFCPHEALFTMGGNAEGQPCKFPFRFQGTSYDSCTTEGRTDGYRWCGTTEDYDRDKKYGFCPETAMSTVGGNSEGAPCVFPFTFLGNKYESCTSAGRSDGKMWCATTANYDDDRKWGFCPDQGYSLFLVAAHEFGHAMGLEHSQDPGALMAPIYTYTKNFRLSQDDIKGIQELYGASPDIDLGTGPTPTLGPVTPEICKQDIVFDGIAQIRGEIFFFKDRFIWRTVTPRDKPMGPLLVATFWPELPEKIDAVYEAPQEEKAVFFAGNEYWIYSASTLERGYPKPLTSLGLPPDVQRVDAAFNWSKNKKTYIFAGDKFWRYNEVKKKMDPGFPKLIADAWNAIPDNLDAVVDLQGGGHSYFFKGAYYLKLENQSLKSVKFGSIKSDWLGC
T1 sequence (Q92731 whole entry): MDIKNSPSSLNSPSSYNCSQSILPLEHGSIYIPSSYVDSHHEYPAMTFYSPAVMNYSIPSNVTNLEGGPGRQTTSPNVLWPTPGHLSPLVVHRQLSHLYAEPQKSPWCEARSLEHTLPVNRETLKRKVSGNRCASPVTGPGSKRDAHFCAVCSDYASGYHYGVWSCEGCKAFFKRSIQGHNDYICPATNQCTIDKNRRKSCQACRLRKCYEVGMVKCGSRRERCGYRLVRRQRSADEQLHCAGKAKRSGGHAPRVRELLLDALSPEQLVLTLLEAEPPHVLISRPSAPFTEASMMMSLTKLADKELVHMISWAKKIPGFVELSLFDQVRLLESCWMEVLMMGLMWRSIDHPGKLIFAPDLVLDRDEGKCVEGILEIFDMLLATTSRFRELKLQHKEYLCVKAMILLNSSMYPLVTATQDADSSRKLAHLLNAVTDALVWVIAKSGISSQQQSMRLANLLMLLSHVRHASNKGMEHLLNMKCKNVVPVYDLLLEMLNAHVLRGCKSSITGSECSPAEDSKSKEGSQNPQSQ
Sequence of 26S proteasome non-ATPase regulatory subunit 14 (O00487 whole entry): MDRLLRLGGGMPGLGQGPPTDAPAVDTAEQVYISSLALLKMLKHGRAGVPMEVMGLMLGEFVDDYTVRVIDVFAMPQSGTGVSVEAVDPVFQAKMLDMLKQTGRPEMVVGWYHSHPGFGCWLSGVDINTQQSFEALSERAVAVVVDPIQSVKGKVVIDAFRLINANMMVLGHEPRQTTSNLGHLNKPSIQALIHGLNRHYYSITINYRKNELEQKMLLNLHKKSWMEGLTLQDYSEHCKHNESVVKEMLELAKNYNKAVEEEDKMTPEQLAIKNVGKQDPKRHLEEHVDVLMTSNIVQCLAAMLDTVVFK
Sequence of Ras and Rab interactor 1/Tyrosine-protein kinase ABL1 (P00519 whole entry): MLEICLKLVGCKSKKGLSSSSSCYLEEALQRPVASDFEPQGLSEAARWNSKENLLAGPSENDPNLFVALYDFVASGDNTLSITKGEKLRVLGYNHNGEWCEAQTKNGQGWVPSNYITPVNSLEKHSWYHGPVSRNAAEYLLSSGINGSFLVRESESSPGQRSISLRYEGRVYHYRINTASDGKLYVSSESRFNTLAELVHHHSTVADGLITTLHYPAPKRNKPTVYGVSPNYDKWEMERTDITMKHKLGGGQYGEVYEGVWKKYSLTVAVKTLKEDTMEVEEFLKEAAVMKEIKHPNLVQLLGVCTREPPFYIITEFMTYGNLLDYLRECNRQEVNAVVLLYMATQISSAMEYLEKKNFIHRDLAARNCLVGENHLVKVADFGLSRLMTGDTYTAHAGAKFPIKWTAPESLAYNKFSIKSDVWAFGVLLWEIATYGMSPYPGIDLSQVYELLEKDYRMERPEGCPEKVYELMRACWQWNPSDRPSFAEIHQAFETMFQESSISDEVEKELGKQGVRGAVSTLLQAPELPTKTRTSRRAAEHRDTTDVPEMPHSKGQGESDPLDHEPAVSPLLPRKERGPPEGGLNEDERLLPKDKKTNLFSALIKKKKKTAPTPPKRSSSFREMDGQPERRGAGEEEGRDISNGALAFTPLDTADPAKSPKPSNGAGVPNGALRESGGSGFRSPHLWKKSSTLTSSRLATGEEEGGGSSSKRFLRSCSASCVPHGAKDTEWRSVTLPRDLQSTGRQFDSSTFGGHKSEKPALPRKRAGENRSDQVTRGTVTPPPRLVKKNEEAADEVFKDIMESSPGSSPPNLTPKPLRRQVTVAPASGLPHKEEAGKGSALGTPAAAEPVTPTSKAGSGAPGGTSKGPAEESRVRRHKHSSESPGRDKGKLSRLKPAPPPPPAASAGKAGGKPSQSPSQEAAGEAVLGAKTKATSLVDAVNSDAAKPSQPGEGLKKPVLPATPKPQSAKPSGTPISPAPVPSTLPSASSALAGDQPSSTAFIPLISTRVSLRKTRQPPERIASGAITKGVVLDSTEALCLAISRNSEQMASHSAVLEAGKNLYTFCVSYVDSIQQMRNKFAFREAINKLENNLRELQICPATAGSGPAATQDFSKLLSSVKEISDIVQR
Sequence of Ras and Rab interactor 1/Tyrosine-protein kinase ABL1 (Q13671 whole entry): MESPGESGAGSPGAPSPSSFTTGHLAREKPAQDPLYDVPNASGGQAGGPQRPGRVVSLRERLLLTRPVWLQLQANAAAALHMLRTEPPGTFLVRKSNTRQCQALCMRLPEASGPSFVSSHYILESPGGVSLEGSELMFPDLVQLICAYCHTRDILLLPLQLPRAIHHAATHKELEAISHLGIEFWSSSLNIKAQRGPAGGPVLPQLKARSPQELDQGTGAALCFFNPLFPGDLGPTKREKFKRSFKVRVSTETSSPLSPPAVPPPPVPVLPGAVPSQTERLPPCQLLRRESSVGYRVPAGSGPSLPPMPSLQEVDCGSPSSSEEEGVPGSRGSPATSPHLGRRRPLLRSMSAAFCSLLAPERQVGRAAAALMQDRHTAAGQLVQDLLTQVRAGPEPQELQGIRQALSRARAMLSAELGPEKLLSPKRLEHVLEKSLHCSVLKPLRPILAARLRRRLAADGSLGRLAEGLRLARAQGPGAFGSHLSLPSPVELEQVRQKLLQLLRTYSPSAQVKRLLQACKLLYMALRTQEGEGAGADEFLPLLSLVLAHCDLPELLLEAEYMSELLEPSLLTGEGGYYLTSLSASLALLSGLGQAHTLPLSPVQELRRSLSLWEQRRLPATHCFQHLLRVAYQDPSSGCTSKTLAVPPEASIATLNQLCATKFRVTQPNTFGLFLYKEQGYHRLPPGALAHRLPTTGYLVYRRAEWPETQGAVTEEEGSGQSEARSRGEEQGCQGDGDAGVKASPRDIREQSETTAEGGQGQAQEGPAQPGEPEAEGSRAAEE
Sequence of Luciferin 4-monooxygenase (P08659 whole entry): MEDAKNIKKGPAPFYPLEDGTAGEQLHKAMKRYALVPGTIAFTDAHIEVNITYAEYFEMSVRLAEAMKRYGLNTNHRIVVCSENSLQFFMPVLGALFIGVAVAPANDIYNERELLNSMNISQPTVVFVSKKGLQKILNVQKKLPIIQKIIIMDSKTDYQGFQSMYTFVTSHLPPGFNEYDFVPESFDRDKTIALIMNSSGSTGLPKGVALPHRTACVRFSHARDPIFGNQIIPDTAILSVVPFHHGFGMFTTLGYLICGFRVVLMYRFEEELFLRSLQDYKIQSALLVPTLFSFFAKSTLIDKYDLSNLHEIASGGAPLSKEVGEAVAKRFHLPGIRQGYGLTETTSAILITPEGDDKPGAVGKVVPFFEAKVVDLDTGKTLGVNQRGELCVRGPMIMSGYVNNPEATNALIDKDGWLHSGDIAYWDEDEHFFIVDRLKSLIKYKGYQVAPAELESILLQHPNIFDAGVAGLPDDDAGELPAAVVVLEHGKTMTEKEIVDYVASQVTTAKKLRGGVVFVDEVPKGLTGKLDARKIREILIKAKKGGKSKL
Sequence of Nonstructural protein 1 (Q194T2 whole entry): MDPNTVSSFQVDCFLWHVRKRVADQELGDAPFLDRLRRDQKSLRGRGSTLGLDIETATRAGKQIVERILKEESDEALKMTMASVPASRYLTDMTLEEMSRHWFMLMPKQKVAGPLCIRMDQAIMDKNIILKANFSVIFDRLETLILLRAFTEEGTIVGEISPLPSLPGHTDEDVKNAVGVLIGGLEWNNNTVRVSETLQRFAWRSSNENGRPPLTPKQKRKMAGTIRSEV

In the case of CC1(C)CC(=O)C(/C=N/CC2CCN(C(=O)Cc3ccccc3)CC2)=C(O)C1, the IC50 [1] is reported as > 100 µM (inactive), the IC50 [2] is reported as > 100 µM (inactive) and the IC50 [3] is reported as > 100 µM (inactive).
With CCOc1ccccc1N(C(=O)c1snc(C(N)=O)c1N)C(C(=O)NCC1CCCO1)c1ccc2ncccc2c1 (configuration not stated) the IC50 [4] was 25.1 µM (inactive).
For c1ccc(-c2noc(-c3ccc4c(c3)OCO4)n2)nc1, the EC50 [5] was 1.47 µM (active), the EC50 [6] was 2.1 µM (inconclusive) and the IC50 [7] was 37.8 µM (not active). The EC50 [8] was 1.67 µM (active), the EC50 [9] was 6.29 µM (inconclusive) and the IC50 [10] was > 109 µM (not active). The EC50 [11] was > 133 µM (inactive), the EC50 [12] was 1.1 µM (active) and the EC50 [13] was 0.105 µM (active). The IC50 [14] was > 80 µM (inactive).
For CC(=NNc1nc2ccccc2s1)c1ncccn1, the CC50 [15] was 9.06 µM (active), the IC50 [16] was > 25 µM (active) and the IC50 [17] was 5.05 µM (active). The AC50 [18] was 1.61 µM (active) and the AC50 [19] was 14 µM (active).
With COC(=O)CCSCc1cn2cc(Cl)ccc2n1 the IC50 [4] was 8.83 µM (active).
In the case of Cc1ccc(-c2ccc(/C=C3\SC(N4CCOCC4)=NC3=O)o2)cc1, the IC50 [1] is reported as 7.72 µM (active), the EC50 [20] is reported as 0.655 µM (active) and the EC50 [21] is reported as 17.1 µM (active). For the same compound, the IC50 [2] was > 100 µM (inactive) and the IC50 [3] was 9.69 µM (active).
For O=C(NCc1ccccn1)c1cn(CCc2ccccc2)nn1, the IC50 [22] was > 50 µM (inactive).
For O=C(Nc1cccc([N+](=O)[O-])c1)c1cc(S(=O)(=O)N2CCOCC2)cs1, the AC50 [23] was 21.8 µM (active).
